Experimental data from ChEMBL document CHEMBL5365539, “Selective modifications of lactose and N-acetyllactosamine with sulfate and aromatic bulky groups unveil unique structural insights in galectin-1-ligand recognition” (Bioorg Med Chem, 2023).

Columns and labels:
Galectin-1 [1] = biological target: T1, Galectin-1 (Homo sapiens, UniProt P09382); experiment: Inhibition of asialofetuin binding to human recombinant Gal-1 transfected in Escherichia coli BL21 (DE3) incubated for 2 hrs by competitive solid-phase assay
T1 sequence (P09382 whole entry): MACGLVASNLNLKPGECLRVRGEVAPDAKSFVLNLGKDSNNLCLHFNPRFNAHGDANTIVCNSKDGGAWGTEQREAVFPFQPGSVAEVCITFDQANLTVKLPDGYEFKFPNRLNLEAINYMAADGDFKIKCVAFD

Galectin-1 [2] = biological target: T1, Galectin-1; experiment: Potency index, ratio of test compound IC50 to (2S,3R,4S,5R,6R)-2-(((2R,3S,4R,5R,6R)-4,5 dihydroxy-2-(hydroxymethyl)-6 methoxytetrahydro-2H-pyran-3-yl)oxy)-6(hydroxymethyl)tetrahydro-2H-pyran-3,4,5-triol IC50 for inhibition of asialofetuin binding to human recombinant Gal-1 transfected in Escherichia coli BL21 (DE3) incubated for 2 hrs by competitive solid-phase assay
Galectin-1 [3] = biological target: T1, Galectin-1; experiment: Binding affinity to human recombinant Gal-1 assessed as association constant by ITC analysis
Galectin-1 [4] = biological target: T1, Galectin-1; experiment: Binding affinity to human recombinant Gal-1 assessed as dissociation constant by ITC analysis
Galectin-1 [5] = biological target: T1, Galectin-1; experiment: Binding affinity to human recombinant Gal-1 assessed as change in enthalpy by ITC analysis
Galectin-1 [6] = biological target: T1, Galectin-1; experiment: Binding affinity to human recombinant Gal-1 assessed as change in entropy by ITC analysis
Galectin-1 [7] = biological target: T1, Galectin-1; experiment: Binding affinity to human recombinant Gal-1 assessed as gibbs free energy change by ITC analysis

Compound | IC50 (Galectin-1 [1]) | Ratio IC50 (Galectin-1 [2]) | Ka (Galectin-1 [3]) | Kd (Galectin-1 [4]) | deltaH (Galectin-1 [5]) | deltaS (Galectin-1 [6]) | deltaG (Galectin-1 [7])
O=[N+]([O-])c1ccc(O[C@@H]2O[C@H](CO)[C@@H](O[C@@H]3O[C@H](CO)[C@H](O)[C@H](OS(=O)(=O)O)[C@H]3O)[C@H](O)[C@H]2O)cc1 | 5.9 mM | 0.79 |  |  |  |  | 
C#CCO[C@@H]1O[C@H](CO)[C@@H](O[C@@H]2O[C@H](CO)[C@H](O)[C@H](O)[C@H]2O)[C@H](O)[C@H]1O | 6.1 mM | 0.83 |  |  |  |  | 
COc1cc(/C=C/C(=O)O)ccc1O[C@@H]1O[C@H](CO)[C@@H](O[C@@H]2O[C@H](CO)[C@H](O)[C@H](O)[C@H]2O)[C@H](O)[C@H]1O | 4.8 mM | 0.65 |  |  |  |  | 
COc1cc(C(=O)OC(C)(C)C)ccc1O[C@@H]1O[C@H](CO)[C@@H](O[C@@H]2O[C@H](CO)[C@H](O)[C@H](O)[C@H]2O)[C@H](O)[C@H]1O | 3.6 mM | 0.48 | 4.9 10^3/M | 0.206 mM | -6.67 kcal/mol | -23.1 J/mol.K | -5.02 kcal/mol
COc1cc(CCC(=O)O)ccc1O[C@@H]1O[C@H](CO)[C@@H](O[C@@H]2O[C@H](CO)[C@H](O)[C@H](O)[C@H]2O)[C@H](O)[C@H]1O | 4.1 mM | 0.56 |  |  |  |  | 
CO[C@@H]1O[C@H](CO)[C@@H](O[C@@H]2O[C@H](CO)[C@H](O)[C@H](O)[C@H]2O)[C@H](O)[C@H]1O | 7.4 mM |  |  |  |  |  | 
OC[C@H]1O[C@@H](O[C@H]2[C@H](O)[C@@H](O)C(O)O[C@@H]2CO)[C@H](O)[C@@H](O)[C@H]1O (stereo not given in full) |  |  | 3.2 10^3/M |  | -6.79 kcal/mol | -28 J/mol.K | 
C#CCO[C@@H]1O[C@H](CO)[C@@H](O[C@@H]2O[C@H](CO)[C@H](O)[C@H](O[C@]3(C(=O)O)C[C@H](O)[C@@H](NC(C)=O)[C@H]([C@@H](O)[C@H](O)CO)O3)[C@H]2O)[C@H](O)[C@H]1NC(C)=O | 9.7 mM | 1.31 |  |  |  |  | 
COc1cc(CO)ccc1O[C@@H]1O[C@H](CO)[C@@H](O[C@@H]2O[C@H](CO)[C@H](O)[C@H](O)[C@H]2O)[C@H](O)[C@H]1O | 10.8 mM | 1.46 |  |  |  |  | 
O=[N+]([O-])c1ccc(O[C@@H]2O[C@H](CO)[C@@H](O[C@@H]3O[C@H](CO)[C@H](O)[C@H](O)[C@H]3O)[C@H](O)[C@H]2O)cc1 | 6.6 mM | 0.89 |  |  |  |  | 
COc1cc(C(=O)O)ccc1O[C@@H]1O[C@H](CO)[C@@H](O[C@@H]2O[C@H](CO)[C@H](O)[C@H](OS(=O)(=O)O)[C@H]2O)[C@H](O)[C@H]1O | 3.9 mM | 0.53 | 3.5 10^3/M | 0.284 mM | -5.28 kcal/mol | -6.2 J/mol.K | -4.83 kcal/mol
COc1cc(C(=O)OC(C)(C)C)ccc1O[C@@H]1O[C@H](CO)[C@@H](O[C@@H]2O[C@H](CO)[C@H](O)[C@H](OS(=O)(=O)O)[C@H]2O)[C@H](O)[C@H]1O | 3.2 mM | 0.43 | 8.6 10^3/M | 0.117 mM | -6.93 kcal/mol | -21.3 J/mol.K | -5.38 kcal/mol

More lines, in order of falling IC50 (Galectin-1 [1]), values ahead:

IC50 (Galectin-1 [1]) | Ratio IC50 (Galectin-1 [2]) | Ka (Galectin-1 [3]) | Kd (Galectin-1 [4]) | deltaH (Galectin-1 [5]) | deltaS (Galectin-1 [6]) | deltaG (Galectin-1 [7]) | Compound
10.7 mM | 1.45 |  |  |  |  |  | C#CCO[C@@H]1O[C@H](CO)[C@@H](O[C@@H]2O[C@H](CO)[C@H](O)[C@H](O)[C@H]2O)[C@H](O)[C@H]1NC(C)=O
7.5 mM | 1.02 |  |  |  |  |  | CC(=O)N[C@H]1C(O)O[C@H](CO)[C@@H](O[C@@H]2O[C@H](CO)[C@H](O)[C@H](O)[C@H]2O)[C@@H]1O (stereo not given in full)
7.5 mM | 1.02 |  |  |  |  |  | COC(=O)c1ccc(O[C@@H]2O[C@H](CO)[C@@H](O[C@@H]3O[C@H](CO)[C@H](O)[C@H](O)[C@H]3O)[C@H](O)[C@H]2O)c(OC)c1
7.3 mM | 0.99 |  |  |  |  |  | C#CCO[C@@H]1O[C@H](CO)[C@@H](O[C@@H]2O[C@H](CO)[C@H](O)[C@H](OCC(=O)O)[C@H]2O)[C@H](O)[C@H]1NC(C)=O
6.1 mM | 0.83 |  |  |  |  |  | CC(=O)N[C@H]1[C@H](Oc2ccc([N+](=O)[O-])cc2)O[C@H](CO)[C@@H](O[C@@H]2O[C@H](CO)[C@H](O)[C@H](OS(=O)(=O)O)[C@H]2O)[C@@H]1O
6.1 mM | 0.82 |  |  |  |  |  | COc1cc(C=O)ccc1O[C@@H]1O[C@H](CO)[C@@H](O[C@@H]2O[C@H](CO)[C@H](O)[C@H](OS(=O)(=O)O)[C@H]2O)[C@H](O)[C@H]1O
5.7 mM | 0.78 |  |  |  |  |  | CC(=O)N[C@H]1[C@H](Oc2ccc([N+](=O)[O-])cc2)O[C@H](CO)[C@@H](O[C@@H]2O[C@H](CO)[C@H](O)[C@H](O)[C@H]2O)[C@@H]1O
4.8 mM | 0.65 |  |  |  |  |  | C#CCO[C@@H]1O[C@H](CO)[C@@H](O[C@@H]2O[C@H](CO)[C@H](O)[C@H](OS(=O)(=O)O)[C@H]2O)[C@H](O)[C@H]1NC(C)=O
